Legend:
[1] = test system: inactivated state of the channel of interest (sodium channel); assay: Electrophysiological assay (whole cell voltage clamp, in vitro); type: cell-based; details: affinity for the inactivated state of the channel of interest
Description: Cells expressing the channel of interest are cultured in DMEM growth media (Gibco) with 0.5 mg/mL G418, +/−1% PSG, and 10% heat-inactivated fetal bovine serum at 37° C. and 5% CO2. For electrophysiological recordings, cells are plated on 10 mm dishes.
Whole cell recordings are examined by established methods of whole cell voltage clamp (Bean et al., op. cit.) using an Axopatch 200B amplifier and Clampex software (Axon Instruments, Union City, Calif.). All experiments are performed at ambient temperature. Electrodes are fire-polished to resistances of 2-4 Mohms Voltage errors and capacitance artifacts are minimized by series resistance compensation and capacitance compensation, respectively. Data are acquired at 40 kHz and filtered at 5 kHz. The external (bath) solution consists of: NaCl (140 mM), KCl (5 mM), CaCl2 (2 mM), MgCl2 (1 mM), HEPES (10 mM) at pH 7.4. The internal (pipette) solution consists of (in mM): NaCl (5), CaCl2 (0.1), MgCl2 (2), CsCl (10), CsF (120), HEPES (10), EGTA (10), at pH 7.2.
To estimate the steady-state affinity of compounds for the resting and inactivated state of the channel (Kr and Ki, respectively), 12.5 ms test pulses to depolarizing voltages from −60 to +90 mV from a holding potential of −120 m V is used to construct current-voltage relationships (I-V curves). A voltage near the peak of the IV-curve (−30 to 0 m V) is used as the test pulse throughout the remainder of the experiment. Steady-state inactivation (availability) curves are then constructed by measuring the current activated during a 8.75 ms test pulse following 1 second conditioning pulses to potentials ranging from −120 to −10 m V.
The steady-state voltage-dependence of binding of a compound to a sodium channel is determined by measuring the blockage of the ionic current at two holding potentials. Binding to rested-state channels is determined by using a holding potential of −120 mV, so that maximal availability is achieved. Binding to inactivated-state channels is evaluated at a holding potential such that only 10% of the channels are available to open. The membrane potential is held at this voltage for at least 10 seconds so that drug binding can equilibrate.
The apparent dissociation constant at each voltage is calculated with the equation:
[formula] where Kd is the dissociation constant (either Kr or Ki), and [Drug] is the concentration of the test compound.
The Example numbers provided in Table 3 correspond to the Examples herein: […]

CYP3A4 = CYP3A4 (Homo sapiens, UniProt P08684); assay: Cytochrome P450 (CYP450) Inhibition Assay, CYP3A4 (Vivid fluorescence, BOMCC substrate); details: human, P450 Baculosomes (recombinant CYP3A4), probe BOMCC (Vivid substrate)
Chain of CYP3A4 (P08684 whole entry): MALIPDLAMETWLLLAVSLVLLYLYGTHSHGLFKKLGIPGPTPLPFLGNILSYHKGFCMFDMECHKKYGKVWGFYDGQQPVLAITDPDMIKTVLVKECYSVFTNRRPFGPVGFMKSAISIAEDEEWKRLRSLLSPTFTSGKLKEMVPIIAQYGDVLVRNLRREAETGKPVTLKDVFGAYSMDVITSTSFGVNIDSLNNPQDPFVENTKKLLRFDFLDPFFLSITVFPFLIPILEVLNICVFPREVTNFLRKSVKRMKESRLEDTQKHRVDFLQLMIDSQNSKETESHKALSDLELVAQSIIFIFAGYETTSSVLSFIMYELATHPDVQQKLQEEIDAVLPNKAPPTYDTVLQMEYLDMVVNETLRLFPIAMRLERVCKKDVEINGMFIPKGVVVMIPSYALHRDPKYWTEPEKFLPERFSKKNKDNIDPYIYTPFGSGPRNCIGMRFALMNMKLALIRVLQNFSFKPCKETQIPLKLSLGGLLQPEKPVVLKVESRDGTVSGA

sodium channel = assay: Guanidine influx assay (14C-guanidine radiotracer flux, in vitro); type: cell-based, human or rat; details: guanidine influx assay using a known cell line that expresses a sodium channel
In short: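 Cells stably expressing human or rat sodium channels (~100,000/well, 20–24 h) were exposed in low-sodium choline buffer to test agent plus aconitine activator and 14C-guanidine at ambient temperature. Intracellular 14C-guanidine was counted by scintillation; IC50 fitted by 4-parameter logistic over half-dilutions around 1 μM.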

Row | SMILES | Ki [1] [nM] | inhibition at 10 µM (CYP3A4) [%] | IC50 (sodium channel; activity level class) [nM] | melting point [°C] | IC50 (sodium channel) [nM]
1 | COCCCCN1C(=O)C2(COc3cc4c(cc32)OCCO4)c2ccccc21 (stereo not drawn) [Example 7.8] | < 300 | < 50 |  |  | 
2 | O=C1N(Cc2cccnc2)c2ccccc2C12COc1cc3c(cc12)OCCO3 (stereo not drawn) [Example 10.1, 1′-(pyridin-3-ylmethyl)-2,3-dihydrospiro[furo[2,3-g][1,4]benzodioxine-8,3′-indol]-2′(1′H)-one] | > 300 |  |  |  | 
3 | CN1C(=O)COc2cc3c(cc21)C1(CO3)C(=O)Nc2ccccc21 (stereo not drawn) [Example 3.22, 1-methyl-1H-spiro[furo[3,2-g][1,4]benzoxazine-8,3′-indole]-2,2′(1′H,3H)-dione] |  | < 50 | 1000 to 10000 | > 250 | 
4 | O=C1N(C[C@@H]2COCCO2)c2ccccc2C12COc1cc3c(cc12)OCC3 (stereo partly drawn) [Example 8.10, 1′-[(2R)-1,4-dioxan-2-ylmethyl]-6,7-dihydrospiro[benzo[1,2-b:4,5-b′]difuran-3,3′-indol]-2′(1′H)-one] |  | < 50 | 100 to 1000 | 162 to 164 | 
5 | CCCCCCCNC(=O)c1ccccc1CN1C(=O)C2(COc3cc4c(cc32)CCO4)c2ccccc21 (stereo not drawn) [Example 12.15, N-heptyl-2-[(2′-oxo-5,6-dihydrospiro[benzo[1,2-b:5,4-b′]difuran-3,3′-indol]-1′(2′H)-yl)methyl]benzamide] |  | > 50 |  | 196 to 198 | 1000 to 10000
6 | O=C1N(CC2CN(Cc3ccccc3)CCO2)c2ccccc2C12COc1cc3c(cc12)OCCO3 (stereo not drawn) [Example 9.60, 1′-[(4-benzylmorpholin-2-yl)methyl]-2,3-dihydrospiro[furo[2,3-g][1,4]benzodioxine-8,3′-indol]-2′(1′H)-one] |  | > 50 |  | 88 to 100 | 100 to 1000
7 | N#Cc1cc2c(cc1F)OCC21C(=O)N(Cc2ccccn2)c2ccccc21 (stereo not drawn) [Example 9.48, 6-fluoro-2′-oxo-1′-(pyridin-2-ylmethyl)-1′,2′-dihydrospiro[1-benzofuran-3,3′-indole]-5-carbonitrile] |  | > 50 | 1000 to 10000 | 108 to 109 | 
8 | Nc1cccc2c1C1(COc3cc4c(cc31)CCO4)C(=O)N2C[C@H]1CCCO1 (stereo partly drawn) [Example 11.39, 4′-amino-1′-[(2R)-tetrahydrofuran-2-ylmethyl]-5,6-dihydrospiro[benzo[1,2-b:5,4-b′]difuran-3,3′-indol]-2′(1′H)-one] |  | > 50 |  | 190 to 192 | 100 to 1000
9 | COc1ccc(CN2C(=O)C3(COc4cc(OC)c(C#N)cc43)c3ccccc32)cc1 (stereo not drawn) [Example 9.46, 6-methoxy-1′-(4-methoxybenzyl)-2′-oxo-1′,2′-dihydrospiro[1-benzofuran-3,3′-indole]-5-carbonitrile] |  | > 50 | 100 to 1000 | 207 to 208 | 
10 | Cl.N#CCCNCCCN1C(=O)C2(COc3cc4c(cc32)CCO4)c2ccccc21 (stereo not drawn) [Example 15.4, 3-{[3-(2′-oxo-5,6-dihydrospiro[benzo[1,2-b:5,4-b′]difuran-3,3′-indol]-1′(2′H)-yl)propyl]amino}propanenitrile hydrochloride] |  | > 50 |  | 214 to 216 | 100 to 1000
11 | CN1C(=O)[C@@]2(COc3cc4c(cc32)OCO4)c2c(-c3ccoc3)cccc21 [Example 16.61, (7S)-4′-furan-3-yl-1′-methylspiro[furo[2,3-f][1,3]benzodioxole-7,3′-indol]-2′(1′H)-one] |  | > 50 |  | 144 to 145 | 1 to 100
12 | O=C1N(Cc2csc(-c3ccc(C(F)(F)F)cc3)n2)c2ccccc2C12COc1cc3c(cc12)OCO3 (stereo not drawn) [Example 6.5, 1′-({2-[4-(trifluoromethyl)phenyl]-1,3-thiazol-4-yl}methyl)spiro[furo[2,3-f][1,3]benzodioxole-7,3′-indol]-2′(1′H)-one] |  | > 50 | 100 to 1000 | 151 to 153 | 
13 | O=C1N(C[C@H]2CCCO2)c2ccccc2C12COc1cc3c(cc12)OCCO3 (stereo partly drawn) [Example 4.44, 1′-[(2R)-tetrahydrofuran-2-ylmethyl]-2,3-dihydrospiro[furo[2,3-g][1,4]benzodioxine-8,3′-indol]-2′(1′H)-one] |  | < 50 | 1 to 100 | 174 to 176 | 
14 | COc1ccc(CN2C(=O)C3(COc4cc5c(cc43)CCO5)c3c2ccc2ncccc32)cc1 (stereo not drawn) [Example 2.38, 3′-(4-methoxybenzyl)-5,6-dihydrospiro[benzo[1,2-b:5,4-b′]difuran-3,1′-pyrrolo[3,2-f]quinolin]-2′(3′H)-one] |  | > 50 | 100 to 1000 | 169 to 170 | 
15 | Cc1c(F)cccc1NC(=O)c1ccccc1CN1C(=O)C2(COc3cc4c(cc32)CCO4)c2ccccc21 (stereo not drawn) [Example 12.14, N-(3-fluoro-2-methylphenyl)-2-[(2′-oxo-5,6-dihydrospiro[benzo[1,2-b:5,4-b′]difuran-3,3′-indol]-1′(2′H)-yl)methyl]benzamide] |  | > 50 |  | > 230 | 100 to 1000
16 | CC(C)(C)CCNC(=O)CN1C(=O)C2(COc3cc4c(cc32)CCO4)c2ccccc21 (stereo not drawn) [Example 12.49, N-(3,3-dimethylbutyl)-2-(2′-oxo-5,6-dihydrospiro[benzo[1,2-b:5,4-b′]difuran-3,3′-indol]-1′(2′H)-yl)acetamide] |  | > 50 |  | 161 to 163 | 100 to 1000
17 | CC(C)OCCCNC(=O)CN1C(=O)C2(COc3cc4c(cc32)CCO4)c2ccccc21 (stereo not drawn) [Example 12.50, N-[3-(1-methylethoxy)propyl]-2-(2′-oxo-5,6-dihydrospiro[benzo[1,2-b:5,4-b′]difuran-3,3′-indol]-1′(2′H)-yl)acetamide] |  | > 50 |  | 149 to 151 | 100 to 1000
18 | O=C1N(Cc2nnc(C(F)(F)F)o2)c2ccccc2C12COc1cc3c(cc12)OCCO3 (stereo not drawn) [Example 11.92, 1′-{[5-(trifluoromethyl)-1,3,4-oxadiazol-2-yl]methyl}-2,3-dihydrospiro[furo[2,3-g][1,4]benzodioxine-8,3′-indol]-2′(1′H)-one] |  | < 50 |  | 137 to 139 | 1 to 100
19 | O=C(Nc1ccccc1F)c1ccccc1CN1C(=O)C2(COc3cc4c(cc32)CCO4)c2ccccc21 (stereo not drawn) [Example 12.12, N-(2-fluorophenyl)-2-[(2′-oxo-5,6-dihydrospiro[benzo[1,2-b:5,4-b′]difuran-3,3′-indol]-1′(2′H)-yl)methyl]benzamide] |  | > 50 |  | 195 to 197 | 100 to 1000
20 | O=C1COc2cc3c(cc21)C1(CO3)C(=O)N(C[C@H]2CCCO2)c2ccccc21 (stereo partly drawn) [Example 11.60, 1′-[(2R)-tetrahydrofuran-2-ylmethyl]spiro[benzo[1,2-b:5,4-b′]difuran-3,3′-indole]-2′,5(1′H,6H)-dione] |  | < 50 |  | 142 to 144 | 100 to 1000
21 | CC(=O)N1C(=O)C2(COc3cc4c(cc32)OCCO4)c2ccccc21 (stereo not drawn) [Example 22, 1′-acetyl-2,3-dihydrospiro[furo[2,3-g][1,4]benzodioxine-8,3′-indol]-2′(1′H)-one] |  | < 50 |  | 236 to 238 | 1 to 100
22 | O=C(CN1C(=O)C2(COc3cc4c(cc32)OCCO4)c2ccccc21)Nc1ccccc1F (stereo not drawn) [Example 13.7, N-(2-fluorophenyl)-2-(2′-oxo-2,3-dihydrospiro[furo[2,3-g][1,4]benzodioxine-8,3′-indol]-1′(2′H)-yl)acetamide] |  | < 50 |  | 117 to 119 | 1 to 100
23 | CC(C)(C)OC(=O)Nc1ccc(CN2C(=O)C3(COc4cc5c(cc43)OCCO5)c3ccccc32)cn1 (stereo not drawn) [Example 9.40, tert-butyl {5-[(2′-oxo-2,3-dihydrospiro[furo[2,3-g][1,4]benzodioxine-8,3′-indol]-1′(2′H)-yl)methyl]pyridin-2-yl}carbamate] |  | < 50 | 100 to 1000 | 238 to 239 | 

— patent US8263606B2 (Xenon Pharmaceuticals Inc., priority 2008, dated 2012)
